{
  "source": "paper PMC7492691",
  "about": "(2020)",
  "key": {"[1]": {"system": "poly(dAdT)2 (DNA, polymer) AT", "test": "UV thermal denaturation, 260 nm", "settings": "Na+ (sodium cacodylate, I = 0.05 M); pH 5; r = [4]/[polynucleotide] = 0.1; per base"}, "[2]": {"system": "poly(dGdC)2 (DNA, polymer) GC", "test": "UV-vis titration, Scatchard fit", "settings": "Na+ (sodium cacodylate, I = 0.05 M); pH 5, 25 °C; n fixed at 0.2; polynucleotide concentration in phosphates; per base"}, "[3]": {"system": "poly(dAdT)2 (DNA, polymer) AT", "test": "UV-vis titration, Scatchard fit", "settings": "Na+ (sodium cacodylate, I = 0.05 M); pH 5, 25 °C; n fixed at 0.2; polynucleotide concentration in phosphates; per base"}, "[4]": {"system": "poly(rA)–poly(rU) (RNA, polymer) A/U", "test": "UV-vis titration, Scatchard fit", "settings": "Na+ (sodium cacodylate, I = 0.05 M); pH 7, 25 °C; n fixed at 0.2; concentration in phosphates; log Ka 6.0 at pH 5; per base"}, "[5]": {"system": "poly(dA)–poly(dT) (DNA, polymer) A/T", "test": "UV thermal denaturation, 260 nm", "settings": "Na+ (sodium cacodylate, I = 0.05 M); pH 5; r = [4]/[polynucleotide] = 0.1; per base"}, "[6]": {"system": "poly(rA)–poly(rU) (RNA, polymer) A/U", "test": "UV thermal denaturation, 260 nm", "settings": "Na+ (sodium cacodylate, I = 0.05 M); pH 5; r = [4]/[polynucleotide] = 0.2; per base"}, "[7]": {"system": "poly(rA)–poly(rU) (RNA, polymer) A/U", "test": "ITC, single set of sites fit", "settings": "Na+ (sodium cacodylate, I = 0.05 M); pH 5, 25 °C; polynucleotide concentration in phosphates; per base"}, "[8]": {"system": "poly(dA)–poly(dT) (DNA, polymer) A/T", "test": "UV-vis titration, Scatchard fit", "settings": "Na+ (sodium cacodylate, I = 0.05 M); pH 5, 25 °C; n fixed at 0.2; polynucleotide concentration in phosphates; per base"}, "[9]": {"system": "poly(dAdT)2 (DNA, polymer) AT", "test": "ITC, two sets of sites fit", "settings": "Na+ (sodium cacodylate, I = 0.05 M); pH 5, 25 °C; site 1 of 2; polynucleotide concentration in phosphates; per base"}},
  "data": [
    {"smiles": "N=C(N)NC(=O)c1ccc(C(=O)NCCCC[C@H](N)C(=O)NCCN2C(=O)c3ccc4c5c(ccc(c35)C2=O)C(=O)N(CCNC(=O)[C@@H](N)CCCCNC(=O)c2ccc(C(=O)NC(=N)N)[nH]2)C4=O)[nH]1", "values": [
      {"measurement": "∆Tm", "setting": "[1]", "result": "10.0 ± 0.5", "unit": "°C"},
      {"measurement": "log Ka", "setting": "[2]", "result": 7.2},
      {"measurement": "log Ka", "setting": "[3]", "result": 5.8},
      {"measurement": "log Ka", "setting": "[4]", "result": 4.5},
      {"measurement": "∆Tm", "setting": "[5]", "result": "10.5 ± 0.5", "unit": "°C"},
      {"measurement": "∆Tm", "setting": "[6]", "result": "6.8 ± 0.5", "unit": "°C"},
      {"measurement": "log Ka1", "setting": "[7]", "result": 6.9},
      {"measurement": "log Ka", "setting": "[8]", "result": 6.4},
      {"measurement": "log Ka1", "setting": "[9]", "result": 6.7}
    ]}
  ]
}
